A short description of data set [1]: Solubility of the drug in gel formulations of the invention. Format: physicochemical.
Data set [2] concerns interferon and tumor necrosis factor. Particulars: rats, oral administration; cited from earlier work.
In data set [3] the test system is human peripheral blood mononuclear cells. Conditions: cultures of human peripheral blood mononuclear cells; cited from earlier work.
Data set [4] deals with interferon and tumor necrosis factor. Particulars: mice, oral administration; cited from earlier work.
Data set [5] concerns herpes simplex virus. Conditions: subcutaneously, dermally or intravaginally 24 hours before infection; cited from earlier work.

Molecules are shown by their SMILES. Where two headings read alike, the source gives them in different places.

On to `CCOCc1nc2c(N)nc3ccccc3c2n1CC(C)(C)O` [4-amino-2-ethoxymethyl-α,α-dimethyl-1H-imidazo[4,5-c]quinoline-1-ethanol], for which the “solubility in formulations of the invention” value in data set [1] is “sufficiently soluble”; in data set [1] (listed as 4-Amino-2-ethoxymethyl-α,α-dimethyl-1H-imidazo[4,5-c]quinoline-1-ethanol) it was “substantial solubility”. Moreover, the “induction of interferon and tumor necrosis factor” value was “induce interferon and tumor necrosis factor” in data set [2]; “induce interferon and tumor necrosis factor” in data set [4]. Moreover, the cytokine induction entry in data set [3] is “induce interferon-α, tumor necrosis factor, interleukin-1α, interleukin-1β, interleukin-6 and interleukin-8”. In addition, in data set [5], the antiviral activity entry is “antiviral activity”.

Values taken from US6365166B2, “Gel formulations for topical drug delivery” (priority 1996, dated 2002).
